Data published in the NIST ThermoML archive (doi:10.1016/j.fluid.2015.12.026).
± gives the expanded uncertainty stated by the source.

Test: wn = mass fraction of the nth substance listed
Details: 101.3 kPa, Liquid, Vibrating tube method

Compound | mass density (298.15 K, w1 = 0.0878) | mass density (313.15 K, w1 = 0.1087) | mass density (333.15 K, w1 = 0.1472) | mass density (298.15 K, w1 = 0.2315) | mass density (313.15 K, w1 = 0.2807) | mass density (333.15 K, w1 = 0.3526)
O=C(O)CCCCC(=O)O [1,6-hexanedioic acid] + OCCOCCO | 1171.8 ± 0.5 kg/m3 | 1175.7 ± 0.6 kg/m3 | 1188.2 ± 0.7 kg/m3 |  |  | 
NC(N)=O [urea] + OCCOCCO |  |  |  | 1160.9 ± 1.1 kg/m3 | 1174.2 ± 1.3 kg/m3 | 1184.5 ± 1.7 kg/m3
